Laboratory results from paper PMC8617627, “Novel DYRK1A Inhibitor Rescues Learning and Memory Deficits in a Mouse Model of Down Syndrome” (Pharmaceuticals, 2021).
Where two headings read alike, the source gives them in different places.

What was measured:
Test in all cases: Kinase profile (33P ATP filter binding)
Format in all cases: biochemical
[1] = target: MKK1 (Homo sapiens, UniProt Q02750); details: read-out: Remaining protein kinase activity
[2] = target: T1, EPH-B2 (Homo sapiens, UniProt P29323)
T1 sequence (P29323 19-1055): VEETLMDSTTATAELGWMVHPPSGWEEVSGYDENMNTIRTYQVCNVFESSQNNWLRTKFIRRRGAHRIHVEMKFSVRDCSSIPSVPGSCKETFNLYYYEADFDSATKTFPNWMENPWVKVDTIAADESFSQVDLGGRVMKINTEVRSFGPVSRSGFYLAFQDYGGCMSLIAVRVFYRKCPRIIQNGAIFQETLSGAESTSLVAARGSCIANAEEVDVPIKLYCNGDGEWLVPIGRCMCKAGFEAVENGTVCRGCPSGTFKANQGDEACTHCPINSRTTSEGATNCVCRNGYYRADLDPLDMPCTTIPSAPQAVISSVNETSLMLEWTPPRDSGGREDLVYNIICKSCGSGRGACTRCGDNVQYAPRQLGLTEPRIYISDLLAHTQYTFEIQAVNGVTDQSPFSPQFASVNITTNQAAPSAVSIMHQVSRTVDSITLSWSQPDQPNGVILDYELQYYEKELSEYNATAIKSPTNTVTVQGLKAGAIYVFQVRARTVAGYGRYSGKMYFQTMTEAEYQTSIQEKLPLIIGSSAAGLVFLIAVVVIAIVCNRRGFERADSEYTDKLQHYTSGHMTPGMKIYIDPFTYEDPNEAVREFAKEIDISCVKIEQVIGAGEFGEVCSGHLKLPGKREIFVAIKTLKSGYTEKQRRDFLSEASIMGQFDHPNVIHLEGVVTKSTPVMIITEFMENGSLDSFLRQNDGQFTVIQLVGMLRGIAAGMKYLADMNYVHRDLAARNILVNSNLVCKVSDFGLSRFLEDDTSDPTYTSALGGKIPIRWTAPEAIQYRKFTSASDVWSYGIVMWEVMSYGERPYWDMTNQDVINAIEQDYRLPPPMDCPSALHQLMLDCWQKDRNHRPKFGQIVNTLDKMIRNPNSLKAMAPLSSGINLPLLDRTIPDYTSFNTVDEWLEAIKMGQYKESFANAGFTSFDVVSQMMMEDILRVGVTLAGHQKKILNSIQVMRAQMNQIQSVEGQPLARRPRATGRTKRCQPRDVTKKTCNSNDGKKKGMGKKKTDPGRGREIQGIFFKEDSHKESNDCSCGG

[3] = target: DAPK1 (Homo sapiens, UniProt P53355); details: read-out: Remaining protein kinase activity
Sequence of DAPK1 (P53355 whole entry): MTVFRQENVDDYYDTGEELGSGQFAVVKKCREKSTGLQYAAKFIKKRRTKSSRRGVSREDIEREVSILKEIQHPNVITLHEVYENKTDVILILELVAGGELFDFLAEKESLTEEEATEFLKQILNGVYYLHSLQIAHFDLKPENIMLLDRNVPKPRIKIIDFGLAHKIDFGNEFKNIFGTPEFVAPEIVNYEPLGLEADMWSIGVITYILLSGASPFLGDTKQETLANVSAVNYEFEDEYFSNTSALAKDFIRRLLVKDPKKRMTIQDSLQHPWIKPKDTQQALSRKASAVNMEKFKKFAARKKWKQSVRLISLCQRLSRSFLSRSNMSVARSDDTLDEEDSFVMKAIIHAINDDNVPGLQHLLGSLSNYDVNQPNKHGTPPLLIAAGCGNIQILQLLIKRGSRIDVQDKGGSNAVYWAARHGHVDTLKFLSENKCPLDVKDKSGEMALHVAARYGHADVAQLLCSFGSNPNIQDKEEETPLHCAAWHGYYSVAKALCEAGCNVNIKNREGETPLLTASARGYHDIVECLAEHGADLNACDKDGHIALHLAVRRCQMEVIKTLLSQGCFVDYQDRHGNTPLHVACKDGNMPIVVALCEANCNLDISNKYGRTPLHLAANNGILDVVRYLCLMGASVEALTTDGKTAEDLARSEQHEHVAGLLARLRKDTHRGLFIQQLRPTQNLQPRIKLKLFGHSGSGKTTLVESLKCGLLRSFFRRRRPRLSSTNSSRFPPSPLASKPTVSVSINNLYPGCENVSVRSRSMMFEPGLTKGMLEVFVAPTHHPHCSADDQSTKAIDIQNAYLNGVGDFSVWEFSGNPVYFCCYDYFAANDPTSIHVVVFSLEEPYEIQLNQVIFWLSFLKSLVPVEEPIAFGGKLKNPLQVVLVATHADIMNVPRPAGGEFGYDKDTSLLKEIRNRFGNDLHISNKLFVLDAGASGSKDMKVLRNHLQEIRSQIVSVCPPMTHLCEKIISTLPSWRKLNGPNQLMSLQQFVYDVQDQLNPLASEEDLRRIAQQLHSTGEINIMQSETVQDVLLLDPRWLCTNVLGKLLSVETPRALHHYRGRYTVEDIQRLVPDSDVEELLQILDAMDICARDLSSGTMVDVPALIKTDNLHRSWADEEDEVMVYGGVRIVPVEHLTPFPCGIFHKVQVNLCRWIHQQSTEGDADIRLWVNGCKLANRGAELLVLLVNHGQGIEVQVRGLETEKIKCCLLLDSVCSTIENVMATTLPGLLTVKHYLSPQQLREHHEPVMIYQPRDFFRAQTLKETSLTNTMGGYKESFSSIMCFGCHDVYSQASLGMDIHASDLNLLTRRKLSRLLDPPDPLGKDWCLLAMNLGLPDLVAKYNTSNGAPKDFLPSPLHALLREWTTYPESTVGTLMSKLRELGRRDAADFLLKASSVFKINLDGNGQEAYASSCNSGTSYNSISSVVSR

[4] = target: T2, TSSK1 (Homo sapiens, UniProt Q9BXA7); details: read-out: Remaining protein kinase activity
T2 sequence (Q9BXA7 1-367): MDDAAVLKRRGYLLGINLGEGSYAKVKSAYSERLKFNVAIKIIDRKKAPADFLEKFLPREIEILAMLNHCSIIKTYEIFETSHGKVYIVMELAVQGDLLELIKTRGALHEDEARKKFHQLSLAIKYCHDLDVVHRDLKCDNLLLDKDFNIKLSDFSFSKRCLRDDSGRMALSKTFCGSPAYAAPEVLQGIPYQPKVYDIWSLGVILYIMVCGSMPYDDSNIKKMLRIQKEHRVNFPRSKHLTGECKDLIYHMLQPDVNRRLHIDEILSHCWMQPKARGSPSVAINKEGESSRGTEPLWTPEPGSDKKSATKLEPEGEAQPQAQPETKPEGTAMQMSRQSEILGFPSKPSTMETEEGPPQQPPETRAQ

[5] = target: CDK2-Cyclin A (Homo sapiens, UniProt P24941)
[6] = target: PAK5 (Homo sapiens, UniProt Q9P286); details: read-out: Remaining protein kinase activity
Sequence of PAK5 (Q9P286 whole entry): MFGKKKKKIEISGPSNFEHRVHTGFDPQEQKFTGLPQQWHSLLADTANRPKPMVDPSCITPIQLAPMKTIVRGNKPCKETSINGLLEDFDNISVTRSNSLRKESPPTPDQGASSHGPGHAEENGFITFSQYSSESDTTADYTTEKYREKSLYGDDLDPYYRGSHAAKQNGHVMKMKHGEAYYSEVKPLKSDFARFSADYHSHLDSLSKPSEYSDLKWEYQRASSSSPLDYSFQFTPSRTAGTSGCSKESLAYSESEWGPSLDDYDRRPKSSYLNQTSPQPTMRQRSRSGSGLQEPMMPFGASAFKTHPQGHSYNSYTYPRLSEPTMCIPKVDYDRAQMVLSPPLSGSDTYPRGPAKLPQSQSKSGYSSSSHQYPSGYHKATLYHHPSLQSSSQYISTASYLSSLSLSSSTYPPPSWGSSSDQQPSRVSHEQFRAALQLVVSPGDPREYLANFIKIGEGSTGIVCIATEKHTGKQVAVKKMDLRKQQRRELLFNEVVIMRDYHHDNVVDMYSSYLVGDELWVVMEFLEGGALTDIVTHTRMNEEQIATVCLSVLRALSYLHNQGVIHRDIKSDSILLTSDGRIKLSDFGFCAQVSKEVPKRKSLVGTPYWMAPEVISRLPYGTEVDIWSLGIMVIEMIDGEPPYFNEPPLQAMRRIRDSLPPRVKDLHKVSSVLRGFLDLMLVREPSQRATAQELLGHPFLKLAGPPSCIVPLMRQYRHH

[7] = target: T3, ERK8 (Homo sapiens, UniProt Q8TD08); details: read-out: Remaining protein kinase activity
T3 sequence (Q8TD08 1-544): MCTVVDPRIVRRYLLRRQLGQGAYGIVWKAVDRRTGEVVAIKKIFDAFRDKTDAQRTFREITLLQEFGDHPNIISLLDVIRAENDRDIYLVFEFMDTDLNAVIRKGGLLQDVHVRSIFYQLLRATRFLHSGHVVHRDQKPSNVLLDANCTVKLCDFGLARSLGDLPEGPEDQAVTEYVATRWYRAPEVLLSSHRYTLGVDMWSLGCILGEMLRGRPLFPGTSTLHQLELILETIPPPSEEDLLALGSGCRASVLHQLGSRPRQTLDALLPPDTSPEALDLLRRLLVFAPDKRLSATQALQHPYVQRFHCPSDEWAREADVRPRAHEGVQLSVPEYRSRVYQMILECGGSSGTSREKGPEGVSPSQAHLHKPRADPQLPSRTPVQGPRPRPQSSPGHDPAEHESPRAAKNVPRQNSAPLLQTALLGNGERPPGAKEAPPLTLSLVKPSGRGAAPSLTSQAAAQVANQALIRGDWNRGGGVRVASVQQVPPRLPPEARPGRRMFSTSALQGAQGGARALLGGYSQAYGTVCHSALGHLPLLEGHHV

Sequence of MKK1 (Q02750 whole entry, species assumed): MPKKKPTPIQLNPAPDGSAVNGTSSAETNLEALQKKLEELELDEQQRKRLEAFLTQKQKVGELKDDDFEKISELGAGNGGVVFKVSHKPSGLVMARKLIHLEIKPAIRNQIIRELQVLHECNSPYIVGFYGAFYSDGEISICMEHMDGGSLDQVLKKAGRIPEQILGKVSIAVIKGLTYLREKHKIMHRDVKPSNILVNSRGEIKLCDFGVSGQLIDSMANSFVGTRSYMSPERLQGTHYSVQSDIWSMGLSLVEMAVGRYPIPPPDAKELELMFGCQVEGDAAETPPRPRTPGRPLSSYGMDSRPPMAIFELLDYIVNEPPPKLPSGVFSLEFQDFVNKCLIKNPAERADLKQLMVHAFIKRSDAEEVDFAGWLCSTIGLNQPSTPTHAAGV

## COc1ccc2sc(-c3cncc(NC(C)=O)c3)nc2c1 [PST-001, N-(5-(5-Methoxybenzo[d]thiazol-2-yl)pyridin-3-yl)acetamide]
[1]
  remaining activity at 1 µM: 117%
  remaining activity at 100 µM: 135%
[2]; 1 μM
  Remaining protein kinase activity: 137%
[2]; 100 μM
  Remaining protein kinase activity: 125%
[3]
  remaining activity at 1 µM: 114%
  remaining activity at 100 µM: 101%
[4]
  remaining activity at 1 µM: 124%
  remaining activity at 100 µM: 114%
[5]; 1 μM
  Remaining protein kinase activity: 110%
[5]; 100 μM
  Remaining protein kinase activity: 69%
[6]
  remaining activity at 1 µM: 113%
  remaining activity at 100 µM: 129%
[7]
  remaining activity at 1 µM: 89%
  remaining activity at 100 µM: 28%

## COc1ccc2sc(-c3cncc(N)c3)nc2c1 [compound 1, 5-(5-Methoxybenzo[d]thiazol-2-yl)pyridin-3-amine]
[1]; MKK1, 1 μM
  remaining activity at 1 µM: 101%
[1]; MKK1, 100 μM
  remaining activity at 100 µM: 84%
[2]; 1 μM
  Remaining protein kinase activity: 136%
[2]; 100 μM
  Remaining protein kinase activity: 96%
[3]; DAPK1, 1 μM
  remaining activity at 1 µM: 103%
[3]; DAPK1, 100 μM
  remaining activity at 100 µM: 58%
[4]; TSSK1, 1 μM
  remaining activity at 1 µM: 107%
[4]; TSSK1, 100 μM
  remaining activity at 100 µM: 70%
[5]; 1 μM
  Remaining protein kinase activity: 96%
[5]; 100 μM
  Remaining protein kinase activity: 19%
[6]; PAK5, 1 μM
  remaining activity at 1 µM: 111%
[6]; PAK5, 100 μM
  remaining activity at 100 µM: 70%
[7]; ERK8, 1 μM
  remaining activity at 1 µM: 86%
[7]; ERK8, 100 μM
  remaining activity at 100 µM: 4%
